Measured values from patent US9102621B2, “Acyl sulfonamide compounds” (Pfizer Limited, priority 2010, dated 2015).
Counter-ions that a name gives are not always drawn.

Biological target: T1, Nav1.7 (or SCN9A) channel (Homo sapiens, UniProt Q15858)
T1 construct: expressed in transfected cells
Experiment: Nav1.7 (hSCN9A) channel block, PatchXpress whole-cell electrophysiology
Type: cell-based
Details: PatchXpress platform; HEK cells stably transfected with hSCN9A; estimated IC-50 calculated from single point % inhibition at V1/2; read-out: Nav1.7 EIC50
Protocol: The ability of the compounds of formula (I) to block the Nav1.7 (or SCN9A) channel were measured using the assay described below.
Human Embryonic Kidney (HEK) cells were transfected with an hSCN9A construct using lipofectamine reagent (Invitrogen), using standard techniques. Cells stably expressing the hSCN9A constructs were identified by their resistance to G-418 (400 μg/ml). Clones were screened for expression using the whole-cell voltage-clamp technique.
HEK cells stably transfected with hSCN9A were maintained in DMEM medium supplemented with 10% heat-inactivated fetal bovine serum and 400 μg/ml G-418 in an incubator at 37° C. with a humidified atmosphere of 10% CO2. For HTS, cells were harvested from flasks by trypsinization and replated in an appropriate multi-well plate (typically 96 or 384 wells/plate) such that confluence would be achieved within 24 hours of plating. For electrophysiological studies, cells were removed from the culture flask by brief trypsinization and re-plated at low density onto glass cover slips. Cells were typically used for electrophysiological experiments within 24 to 72 hours after plating.
Cover slips containing HEK cells expressing hSCN9A were placed in a bath on the stage of an inverted microscope and perfused (approximately 1 ml/minutes) with extracellular solution of the following composition: 138 mM NaCl, 2 mM CaCl2, 5.4 mM KCl, 1 mM MgCl2, 10 mM glucose, and 10 mM HEPES, pH 7.4, with NaOH. […] The osmolarity of the extracellular and intracellular solutions was 300 mOsm/kg and 295 mOsm/kg, respectively. All recordings were made at room temperature (22-24° C.) using AXOPATCH 200B amplifiers and PCLAMP software (Axon Instruments, Burlingame, Calif.).
hSCN9A currents in HEK cells were measured using the whole-cell configuration of the patch-clamp technique (Hamill et al., 1981). Uncompensated series resistance was typically 2 to 5 mega ohms and >85% series resistance compensation was routinely achieved. As a result, voltage errors were negligible and no correction was applied. Current records were acquired at 20 to 50 KHz and filtered at 5 to 10 KHz.
HEK cells stably transfected with hSCN9A were viewed under Hoffman contrast optics and placed in front of an array of flow pipes emitting either control or compound-containing extracellular solutions. All compounds were dissolved in dimethyl sulfoxide to make 10 mM stock solutions, which were then diluted into extracellular solution to attain the final concentrations desired. […] The voltage-dependence of inactivation was determined by applying a series of depolarizing prepulses (8 sec long in 10 mV increments) from a negative holding potential. The voltage was then immediately stepped to 0 mV to assess the magnitude of the sodium current. Currents elicited at 0 mV were plotted as a function of prepulse potential to allow estimation of the voltage at which 50% of the channels were inactivated (midpoint of inactivation or V1/2). Compounds were tested for their ability to inhibit hSCN9A sodium channels by activating the channel with a 20 msec voltage step to 0 mV following an 8 second conditioning prepulse to the empirically determined V1/2. Compound effect (% inhibition) was determined by difference in current amplitude before and after application of test compounds. […] Inhibition values <20% and >80% were excluded from the calculation.
Electrophysiological assays were conducted with PatchXpress 7000 hardware and associated software (Molecular Devices Corp). All assay buffers and solutions were identical to those used in conventional whole-cell voltage clamp experiments described above. hSCN9A cells were grown as above to 50%-80% confluency and harvested by trypsinization. Trypsinized cells were washed and resuspended in extracellular buffer at a concentration of 1×10^6 cells/ml. The onboard liquid handling facility of the PatchXpress was used for dispensing cells and application of test compounds. […]

T1 sequence (Q15858 whole entry): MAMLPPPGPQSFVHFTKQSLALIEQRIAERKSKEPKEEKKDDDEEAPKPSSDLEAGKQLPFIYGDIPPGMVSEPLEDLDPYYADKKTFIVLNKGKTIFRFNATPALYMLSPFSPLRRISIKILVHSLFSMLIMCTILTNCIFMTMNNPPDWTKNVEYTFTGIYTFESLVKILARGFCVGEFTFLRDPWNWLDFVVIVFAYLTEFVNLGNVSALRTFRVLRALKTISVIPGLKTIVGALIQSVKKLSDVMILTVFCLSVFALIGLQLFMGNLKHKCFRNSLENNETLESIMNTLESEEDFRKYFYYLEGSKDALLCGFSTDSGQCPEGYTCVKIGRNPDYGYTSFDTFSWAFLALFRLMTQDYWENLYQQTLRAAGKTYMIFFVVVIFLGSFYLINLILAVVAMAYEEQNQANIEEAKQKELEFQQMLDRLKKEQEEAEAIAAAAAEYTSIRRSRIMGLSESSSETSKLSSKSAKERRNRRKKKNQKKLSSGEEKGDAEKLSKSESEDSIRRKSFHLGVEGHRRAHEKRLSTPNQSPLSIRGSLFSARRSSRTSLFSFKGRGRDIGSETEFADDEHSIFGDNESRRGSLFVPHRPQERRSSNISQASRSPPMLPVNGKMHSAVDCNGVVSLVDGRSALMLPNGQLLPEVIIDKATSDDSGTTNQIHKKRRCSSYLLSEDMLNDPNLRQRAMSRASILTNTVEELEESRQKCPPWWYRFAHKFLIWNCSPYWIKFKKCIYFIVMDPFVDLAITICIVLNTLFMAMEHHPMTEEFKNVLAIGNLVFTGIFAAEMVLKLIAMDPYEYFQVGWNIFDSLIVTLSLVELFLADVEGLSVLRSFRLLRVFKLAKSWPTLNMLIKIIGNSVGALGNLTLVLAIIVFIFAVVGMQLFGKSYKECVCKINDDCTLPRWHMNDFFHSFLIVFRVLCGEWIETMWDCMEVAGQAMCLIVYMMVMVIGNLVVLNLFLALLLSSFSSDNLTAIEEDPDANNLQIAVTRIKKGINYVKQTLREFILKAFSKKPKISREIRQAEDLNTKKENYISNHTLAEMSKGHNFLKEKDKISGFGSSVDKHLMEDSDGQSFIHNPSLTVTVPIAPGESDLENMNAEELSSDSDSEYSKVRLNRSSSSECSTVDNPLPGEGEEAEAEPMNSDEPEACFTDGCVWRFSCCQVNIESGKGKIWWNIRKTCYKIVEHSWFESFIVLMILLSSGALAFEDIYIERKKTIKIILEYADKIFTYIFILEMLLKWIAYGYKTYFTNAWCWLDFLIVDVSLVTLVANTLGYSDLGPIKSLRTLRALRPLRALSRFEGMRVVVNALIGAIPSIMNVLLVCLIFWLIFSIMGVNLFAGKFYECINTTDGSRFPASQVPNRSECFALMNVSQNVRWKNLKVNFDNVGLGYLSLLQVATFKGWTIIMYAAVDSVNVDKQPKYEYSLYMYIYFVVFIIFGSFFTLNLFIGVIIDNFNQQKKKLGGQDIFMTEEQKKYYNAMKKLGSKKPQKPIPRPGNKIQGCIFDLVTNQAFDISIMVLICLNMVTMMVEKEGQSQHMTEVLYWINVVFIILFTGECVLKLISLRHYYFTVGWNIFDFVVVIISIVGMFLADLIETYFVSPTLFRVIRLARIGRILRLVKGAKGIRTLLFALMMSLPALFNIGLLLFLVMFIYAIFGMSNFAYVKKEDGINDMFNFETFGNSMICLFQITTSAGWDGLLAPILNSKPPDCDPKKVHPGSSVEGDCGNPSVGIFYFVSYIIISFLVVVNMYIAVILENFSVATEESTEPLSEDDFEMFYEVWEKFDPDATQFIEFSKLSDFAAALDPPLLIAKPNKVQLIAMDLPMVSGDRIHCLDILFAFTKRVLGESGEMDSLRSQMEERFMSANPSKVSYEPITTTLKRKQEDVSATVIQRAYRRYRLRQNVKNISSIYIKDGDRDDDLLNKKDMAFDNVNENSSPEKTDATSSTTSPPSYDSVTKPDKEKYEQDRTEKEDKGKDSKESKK

Row | IC50 [µM] | Structure (SMILES)
1 | 6.6 | CS(=O)(=O)NC(=O)c1ccc(COc2ccc(Cl)cn2)cc1 [Example 63, 4-{[(5-Chloropyridin-2-yl)oxy]methyl}-N-(methylsulfonyl)benzamide]
2 | > 1 | CS(=O)(=O)NC(=O)c1cc(F)c(OCc2ccc(Cl)cn2)cc1F [Example 64, 4-[(5-Chloropyridin-2-yl)methoxy]-2,5-difluoro-N-(methylsulfonyl)benzamide diethylamine salt]
